Values of other authors as cited in publication PMC4648373 (Cancer prevention research (Philadelphia, Pa.), 2015).
Like-named read-outs stand apart in the source and are kept apart here.

Key:
[1] = rodents
AR signaling = conditions: cell culture models, same concentration range
[2] = healthy human subjects

| conversion to DOH [1] | conversion to DOH [2] | SMILES | anti-androgen (AR) signaling, cellular growth and survival activities (AR signaling) |
| --- | --- | --- | --- |
| rapidly and extensively converted to DOH | extensive conversion | CC(C)=CC(=O)O[C@H]1Cc2cc3ccc(=O)oc3cc2OC1(C)C [D, Decursin] | identical anti-androgen signaling and anti-proliferative activities |
|  |  | CC1(C)Oc2cc3oc(=O)ccc3cc2C[C@@H]1O [DOH, decursinol] | much less inhibitory |
| rapidly and extensively converted to DOH | extensive conversion | C/C=C(/C)C(=O)O[C@H]1Cc2cc3ccc(=O)oc3cc2OC1(C)C [DA, decursinol angelate] | identical anti-androgen signaling and anti-proliferative activities |
